Source: patent publication US20110028504A1, “Formulation of radioprotective alpha beta unsaturated aryl sulfones” (ONCONOVA THERAPEUTICS, INC., priority 2005, published 2011)

Legend:
HFL-1 cells = assay: Radioprotection of cultured normal cells, colony count after ionizing radiation; format: cell-based, human; conditions: 2.5 to 20 micromolar for 24 hrs before 10 Gy or 15 Gy ionizing radiation, colonies vs DMSO control
Description: HFL-1 cells, which are normal diploid lung fibroblasts, were plated into 24 well dishes at a cell density of 3000 cells per 10 mm^2 in DMEM completed with 10% fetal bovine serum and antibiotics. The test compounds listed in Table 28 were added to the cells 24 hours later in select concentrations from 2.5 to 20 micromolar, inclusive, using DMSO as a solvent. Control cells were treated with DMSO alone. The cells were exposed to the test compound or DMSO for 24 hrs. The cells were then irradiated with either 10 Gy (gray) or 15 Gy of ionizing radiation (IR) using a J.L. Shepherd Mark I, Model 30-1 Irradiator equipped with ^137cesium as a source.
After irradiation, the medium on the test and control cells was removed and replaced with fresh growth medium without the test compounds or DMSO. The irradiated cells were incubated for 96 hours and duplicate wells were trypsinized and replated onto 100 mm^2 tissue culture dishes. The replated cells were grown under normal conditions with one change of fresh medium for 3 weeks. The number of colonies from each 100 mm^2 culture dish, which represents the number of surviving cells, was determined by staining the dishes as described below.
To visualize and count the colonies derived from the clonal outgrowth of individual radioprotected cells, the medium was removed and the plates were washed one time with room temperature phosphate buffered saline. The cells were stained with a 1:10 diluted Modified Giemsa staining solution (Sigma) for 20 minutes. The stain was removed, and the plates were washed with tap water. The plates were air dried, the number of colonies from each plate were counted and the average from duplicate plates was determined.
A “+” indicates radioprotective activity of between 2- and 4.5-fold at the concentrations tested. Fold protection was determined by dividing the average number of colonies from the test plates by the average number of colonies on the control plates.

rodent species = conditions: in vivo; cited from earlier work
C57 black mice = assay: Protection of mice from radiation toxicity by pre-treatment; format: in vivo
Description: C57 black mice age 10-12 weeks (Taconic) were divided into two treatment groups of 10 mice each. One group, designated the “200×2” group, received intraperitoneal injections of 200 micrograms (E)-4-carboxystyryl-4-chlorobenzylsulfone dissolved in DMSO (a 10 mg/Kg dose, based on 20 g mice) 18 and 6 hours before irradiation with 8 Gy gamma radiation. The other group, designated “500×2,” received intraperitoneal injections of 500 micrograms (E)-4-carboxystyryl-4-chlorobenzylsulfone dissolved in DMSO (a 25 mg/Kg dose, based on 20 g mice) 18 and 6 hours before irradiation with 8 Gy gamma radiation. A control group of 16 animals received 8 Gy gamma radiation alone.

Row | Compound | Activity (radioprotective activity, fold protection) (HFL-1 cells) | other results
1 | (Z)-Styryl-(E)-2-methoxy-4-ethoxystyrylsulfone [Compound 11] | + (A “+” indicates radioprotective activity of between 2- and 4.5-fold at the concentrations tested) | –
2 | (E)-4-Fluorostyryl-4-trifluoromethylbenzylsulfone [Compound 5] | + (A “+” indicates radioprotective activity of between 2- and 4.5-fold at the concentrations tested) | –
3 | (E)-4-Fluorostyryl-4-chlorophenylsulfone [Compound 10] | + (A “+” indicates radioprotective activity of between 2- and 4.5-fold at the concentrations tested) | –
4 | O=S(=O)(/C=C/c1ccoc1)Cc1ccc(Cl)cc1Cl [Compound 8, (E)-3-Furanethenyl-2,4-dichlorobenzylsulfone] | + (A “+” indicates radioprotective activity of between 2- and 4.5-fold at the concentrations tested) | –
5 | O=S(=O)(/C=C\c1ccc(F)cc1)Cc1ccc(Cl)cc1 [Compound 7, (Z)-4-Fluorostyryl-4-chlorobenzylsulfone] | + (A “+” indicates radioprotective activity of between 2- and 4.5-fold at the concentrations tested) | –
6 | Hydroxypropyl-B-Cyclodextrin [HPCD] | – | toxicity (rodent species): non-toxic
7 | (E)-2,4,6-Trimethoxystyryl-4-methoxybenzylsulfone [Compound 2] | + (A “+” indicates radioprotective activity of between 2- and 4.5-fold at the concentrations tested) | –
8 | O=C(O)c1ccc(/C=C/S(=O)(=O)Cc2ccc(Cl)cc2)cc1 [Compound 13, (E)-4-Carboxystyryl-4-chlorobenzylsulfone] | + (A “+” indicates radioprotective activity of between 2- and 4.5-fold at the concentrations tested) | maximum mortality rate by day 40 (C57 black mice; “200×2” group: 10 mg/Kg intraperitoneal 18 and 6 hours before 8 Gy gamma radiation): approximately 60%; mice dead at day 20 (C57 black mice; “200×2” group: 10 mg/Kg intraperitoneal 18 and 6 hours before 8 Gy gamma radiation (control 80%)): about 50%; maximum mortality rate by day 40 (C57 black mice; “500×2” group: 25 mg/Kg intraperitoneal 18 and 6 hours before 8 Gy gamma radiation): about 50%; mice dead at day 20 (C57 black mice; “500×2” group: 25 mg/Kg intraperitoneal 18 and 6 hours before 8 Gy gamma radiation (control 80%)): about 30%
9 | O=S(=O)(/C=C/c1ccc(F)cc1)Cc1ccc(Cl)cc1 [Compound 1, (E)-4-Fluorostyryl-4-chlorobenzylsulfone] | + (A “+” indicates radioprotective activity of between 2- and 4.5-fold at the concentrations tested) | –
10 | (E)-4-Fluorostyryl-4-cyanobenzylsulfone [Compound 6] | + (A “+” indicates radioprotective activity of between 2- and 4.5-fold at the concentrations tested) | –
